Reference: PubChem BioAssay (NCI)
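The compound was tested at five concentrations on cells cultured in 96-well plates, with a 48-hour exposure period. TGI: total growth inhibition.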

Tests used:
Assay in all cases: NCI tumour cell line growth inhibition, 48 h
PC-3 prostate = tested on: PC-3 prostate
HCT-15 colon = tested on: HCT-15 colon
SW-620 colon = tested on: SW-620 colon
DU-145 prostate = tested on: DU-145 prostate
HOP-62 NSCLC = tested on: HOP-62 NSCLC
UO-31 renal = tested on: UO-31 renal
OVCAR-5 ovarian = tested on: OVCAR-5 ovarian
IGROV1 ovarian = tested on: IGROV1 ovarian
RXF 393 renal = tested on: RXF 393 renal
CAKI-1 renal = tested on: CAKI-1 renal
ACHN renal = tested on: ACHN renal
SR leukemia = tested on: SR leukemia
SK-OV-3 ovarian = tested on: SK-OV-3 ovarian
HS 578T breast = tested on: HS 578T breast
NCI-H522 lung = tested on: NCI-H522 lung
786-0 renal = tested on: 786-0 renal
HL-60(TB) leukemia = tested on: HL-60(TB) leukemia
A549 NSCLC = tested on: A549 NSCLC
A498 renal = tested on: A498 renal
UACC-257 melanoma = tested on: UACC-257 melanoma
MDA-N = tested on: MDA-N
MDA-MB-231 breast = tested on: MDA-MB-231 breast
NCI/ADR-RES ovarian = tested on: NCI/ADR-RES ovarian
MOLT-4 leukemia = tested on: MOLT-4 leukemia
OVCAR-3 ovarian = tested on: OVCAR-3 ovarian
MALME-3M melanoma = tested on: MALME-3M melanoma
U251 CNS = tested on: U251 CNS
SK-MEL-5 melanoma = tested on: SK-MEL-5 melanoma
CCRF-CEM leukemia = tested on: CCRF-CEM leukemia
COLO 205 colon = tested on: COLO 205 colon
M14 melanoma = tested on: M14 melanoma
LOX IMVI melanoma = tested on: LOX IMVI melanoma
HT29 colon = tested on: HT29 colon
MCF7 breast = tested on: MCF7 breast
MDA-MB-435 = tested on: MDA-MB-435
EKVX NSCLC = tested on: EKVX NSCLC
T-47D breast = tested on: T-47D breast
NCI-H460 lung = tested on: NCI-H460 lung
UACC-62 melanoma = tested on: UACC-62 melanoma
SK-MEL-2 melanoma = tested on: SK-MEL-2 melanoma
NCI-H226 lung = tested on: NCI-H226 lung
HOP-92 NSCLC = tested on: HOP-92 NSCLC
SK-MEL-28 melanoma = tested on: SK-MEL-28 melanoma
KM12 colon = tested on: KM12 colon
RPMI-8226 leukemia = tested on: RPMI-8226 leukemia
HCC-2998 colon = tested on: HCC-2998 colon
HCT-116 colon = tested on: HCT-116 colon
SNB-19 CNS = tested on: SNB-19 CNS
K-562 leukemia = tested on: K-562 leukemia
SN12C renal = tested on: SN12C renal
OVCAR-8 ovarian = tested on: OVCAR-8 ovarian
SF-295 CNS = tested on: SF-295 CNS
OVCAR-4 ovarian = tested on: OVCAR-4 ovarian
SF-268 CNS = tested on: SF-268 CNS
NCI-H23 lung = tested on: NCI-H23 lung
BT-549 breast = tested on: BT-549 breast

## CCOC(=O)C1(O)C(=O)C2=C3C(=O)OC(C4OC(=O)c5c(c(O)c(O)c(O)c5C31)-c1c(cc(O)c(O)c1O)C(=O)OC1COC(=O)c3cc(O)c(O)c(O)c3-c3c(cc(O)c(O)c3O)C(=O)OC14)[C@@H]2O (stereo partly specified)
PC-3 prostate
  TGI: > 100 µM
HCT-15 colon
  TGI: 40.8 µM
SW-620 colon
  TGI: 54.5 µM
DU-145 prostate
  TGI: > 100 µM
HOP-62 NSCLC
  TGI: > 100 µM
UO-31 renal
  TGI: > 100 µM
OVCAR-5 ovarian
  TGI: 35.3 µM
IGROV1 ovarian
  TGI: 79.5 µM
RXF 393 renal
  TGI: 36.8 µM
CAKI-1 renal
  TGI: 25.9 µM
ACHN renal
  TGI: 35.2 µM
SR leukemia
  TGI: > 100 µM
SK-OV-3 ovarian
  TGI: > 100 µM
HS 578T breast
  TGI: > 100 µM
NCI-H522 lung
  TGI: 53.6 µM
786-0 renal
  TGI: 39.4 µM
HL-60(TB) leukemia
  TGI: 72.7 µM
A549 NSCLC
  TGI: 44.4 µM
A498 renal
  TGI: > 100 µM
UACC-257 melanoma
  TGI: > 100 µM
MDA-N
  TGI: 37.8 µM
MDA-MB-231 breast
  TGI: 36.1 µM
NCI/ADR-RES ovarian
  TGI: > 100 µM
MOLT-4 leukemia
  TGI: 57.2 µM
OVCAR-3 ovarian
  TGI: 85.4 µM
MALME-3M melanoma
  TGI: 95.8 µM
U251 CNS
  TGI: 44.2 µM
SK-MEL-5 melanoma
  TGI: 27.8 µM
CCRF-CEM leukemia
  TGI: 52.6 µM
COLO 205 colon
  TGI: 35.4 µM
M14 melanoma
  TGI: 67.6 µM
LOX IMVI melanoma
  TGI: 39.3 µM
HT29 colon
  TGI: 51.3 µM
MCF7 breast
  TGI: 40.1 µM
MDA-MB-435
  TGI: 33.4 µM
EKVX NSCLC
  TGI: 38.4 µM
T-47D breast
  TGI: > 100 µM
NCI-H460 lung
  TGI: > 100 µM
UACC-62 melanoma
  TGI: 43.1 µM
SK-MEL-2 melanoma
  TGI: 94.7 µM
NCI-H226 lung
  TGI: 48.6 µM
HOP-92 NSCLC
  TGI: 86.5 µM
SK-MEL-28 melanoma
  TGI: > 100 µM
KM12 colon
  TGI: > 100 µM
RPMI-8226 leukemia
  TGI: 85 µM
HCC-2998 colon
  TGI: 95.4 µM
HCT-116 colon
  TGI: 30.8 µM
SNB-19 CNS
  TGI: > 100 µM
K-562 leukemia
  TGI: 56.9 µM
SN12C renal
  TGI: 35.4 µM
OVCAR-8 ovarian
  TGI: 39.5 µM
SF-295 CNS
  TGI: 43 µM
OVCAR-4 ovarian
  TGI: 45.1 µM
SF-268 CNS
  TGI: 52.9 µM
NCI-H23 lung
  TGI: 39.5 µM
BT-549 breast
  TGI: 61.5 µM
